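How tested: cells in 96-well plates exposed to compound for 48 hours at five concentrations. Definition used: TGI = concentration required for complete inhibition of growth.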
Tests used:
Test in all cases: NCI tumour cell line growth inhibition, 48 h
[1] = system: EKVX NSCLC
[2] = system: OVCAR-8 ovarian
[3] = system: CCRF-CEM leukemia
[4] = system: HOP-92 NSCLC
[5] = system: RPMI-8226 leukemia
[6] = system: LOX IMVI melanoma
[7] = system: SNB-78 CNS
[8] = system: KM12 colon
[9] = system: A549 NSCLC
[10] = system: RXF 393 renal
[11] = system: UACC-257 melanoma
[12] = system: KM20L2 colon
[13] = system: SR leukemia
[14] = system: NCI-H522 lung
[15] = system: SK-MEL-28 melanoma
[16] = system: M14 melanoma
[17] = system: SNB-75 CNS
[18] = system: SF-295 CNS
[19] = system: DMS 114 small cell lung
[20] = system: SW-620 colon
[21] = system: SK-OV-3 ovarian
[22] = system: HCT-116 colon
[23] = system: UACC-62 melanoma
[24] = system: SK-MEL-2 melanoma
[25] = system: HCT-15 colon
[26] = system: K-562 leukemia
[27] = system: HOP-62 NSCLC
[28] = system: 786-0 renal
[29] = system: MALME-3M melanoma
[30] = system: DMS 273 small cell lung
[31] = system: DLD-1 colon
[32] = system: SN12C renal
[33] = system: HL-60(TB) leukemia
[34] = system: NCI-H226 lung
[35] = system: U251 CNS
[36] = system: SF-268 CNS
[37] = system: HOP-18 NSCLC
[38] = system: M19-MEL melanoma
[39] = system: LXFL 529 NSCLC
[40] = system: SF-539 CNS
[41] = system: SNB-19 CNS
[42] = system: NCI-H460 lung
[43] = system: MOLT-4 leukemia
[44] = system: COLO 205 colon
[45] = system: ACHN renal
[46] = system: OVCAR-4 ovarian
[47] = system: IGROV1 ovarian
[48] = system: OVCAR-3 ovarian
[49] = system: HCC-2998 colon
[50] = system: HT29 colon
[51] = system: UO-31 renal
[52] = system: NCI-H23 lung
[53] = system: TK-10 renal

Measured: TGI

Cc1c(/C=N/NC(=O)c2ccc(Cl)cc2)c(=O)n(-c2ccccc2)n1C
> 100 µM: all assays above
